{
  "source": "patent US5631354A",
  "about": "“5-O-desosaminylerythronolide derivatives” (Taisho Pharmaceutical Co., Ltd., priority 1991, dated 1997)",
  "test_in_all_cases": "in vitro antibacterial activity (MIC measuring method of Japanese Chemotherapeutic Association)",
  "type_in_all_cases": "cell-based",
  "key": {"E. faecalis CSJ 1212": {"test_system": "E. faecalis CSJ 1212", "details": "Enterococcus faecalis", "experimental": "(§1) The in vitro antibacterial activity of the compounds of the present invention against various test bacteria was determined according to the MIC measuring method of Japanese Chemotherapeutic Association by using a sensitive disc media (available from Eiken Chemical Co.). 6-O-methylerythromycin A was used as a reference agent in Table 1, and erythromycin A in Table 2."}, "S. aureus 209P-JC": {"test_system": "S. aureus 209P-JC", "details": "Staphylococcus aureus, read-out: MIC value (minimum inhibitory concentration)", "experimental": "as §1"}, "S. aureus B1": {"test_system": "S. aureus B1", "details": "Staphylococcus aureus", "experimental": "as §1"}, "S. aureus C1": {"test_system": "S. aureus C1", "details": "Staphylococcus aureus", "experimental": "as §1"}, "S. aureus J-109": {"test_system": "S. aureus J-109", "details": "Staphylococcus aureus, J109, sensitive disc media, read-out: MIC value (minimum inhibitory concentration)", "experimental": "as §1"}, "S. aureus Smith 4": {"test_system": "S. aureus Smith 4", "details": "Staphylococcus aureus, SMITH4, sensitive disc media, read-out: MIC value (minimum inhibitory concentration)", "experimental": "as §1"}, "S. epidermides IID 866": {"test_system": "S. epidermides IID 866", "details": "read-out: MIC value (minimum inhibitory concentration)", "experimental": "as §1"}, "[1]": {"details": "CSJ1212, E. faecalis CSJ 1212, sensitive disc media, read-out: MIC value (minimum inhibitory concentration)"}, "[2]": {"details": "S. aureus 209P-JC, sensitive disc media"}, "[3]": {"details": "C1, read-out: MIC value (minimum inhibitory concentration)"}, "[4]": {"details": "CSJ1212, read-out: MIC value (minimum inhibitory concentration)"}, "[5]": {"details": "B1, read-out: MIC value (minimum inhibitory concentration)"}},
  "note": "Read-outs that look alike come from different tables or passages of the source.",
  "data": [
    {"smiles": "CC[C@H]1OC(=O)[C@H](C)[C@@H](OC(=O)Cc2ccc([N+](=O)[O-])cc2)[C@H](C)[C@@H](O[C@@H]2O[C@H](C)C[C@H](N(C)C)[C@H]2O)[C@](C)(OC)C[C@@H](C)C(=O)[C@H](C)[C@H]2OC(=O)O[C@@]21C", "note": "[Example 9, 3-O-(4-nitrophenyl)acetyl-5-O-desosaminyl-6-O-methylerythronolide A 11,12 cyclic carbonate]", "values": [
      {"measurement": "MIC", "setting": "E. faecalis CSJ 1212; [1]", "result": 0.05, "unit": "µg/mL"},
      {"measurement": "MIC", "setting": "S. aureus 209P-JC; [2]", "result": 0.025, "unit": "µg/mL"},
      {"measurement": "MIC", "setting": "S. aureus B1; S. aureus B1, sensitive disc media, read-out: MIC value (minimum inhibitory concentration)", "result": 0.2, "unit": "µg/mL"},
      {"measurement": "MIC", "setting": "S. aureus C1; [3]", "result": 0.05, "unit": "µg/mL"},
      {"measurement": "MIC", "setting": "S. aureus J-109", "result": "> 100", "unit": "µg/mL"},
      {"measurement": "MIC", "setting": "S. aureus Smith 4", "result": 0.05, "unit": "µg/mL"},
      {"measurement": "MIC", "setting": "S. epidermides IID 866", "result": 0.05, "unit": "µg/mL"}
    ]},
    {"smiles": "CC[C@H]1OC(=O)[C@H](C)[C@@H](OC(=O)Cc2ccc([N+](=O)[O-])cc2[N+](=O)[O-])[C@H](C)[C@@H](O[C@@H]2O[C@H](C)C[C@H](N(C)C)[C@H]2O)[C@](C)(OC)C[C@@H](C)C(=O)[C@H](C)[C@@H](O)[C@]1(C)O", "note": "[Example 3, 3-O-(2,4-dinitrophenyl)acetyl-5-O-desosaminyl-6-O-methylerythronolide A]", "values": [
      {"measurement": "MIC", "setting": "E. faecalis CSJ 1212; [4]", "result": 0.1, "unit": "µg/mL"},
      {"measurement": "MIC", "setting": "S. aureus 209P-JC; 209P", "result": 0.05, "unit": "µg/mL"},
      {"measurement": "MIC", "setting": "S. aureus B1; [5]", "result": 0.2, "unit": "µg/mL"},
      {"measurement": "MIC", "setting": "S. aureus C1; [3]", "result": 0.1, "unit": "µg/mL"},
      {"measurement": "MIC", "setting": "S. aureus J-109", "result": "> 100", "unit": "µg/mL"},
      {"measurement": "MIC", "setting": "S. aureus Smith 4", "result": 0.1, "unit": "µg/mL"},
      {"measurement": "MIC", "setting": "S. epidermides IID 866", "result": 0.1, "unit": "µg/mL"}
    ]},
    {"smiles": "CC[C@H]1OC(=O)[C@H](C)[C@@H](OC(=O)Cc2ccc([N+](=O)[O-])cc2)[C@H](C)[C@@H](O[C@@H]2O[C@H](C)C[C@H](N(C)C)[C@H]2O)[C@](C)(OC)C[C@@H](C)C(=NO)[C@H](C)[C@H]2OC(=O)O[C@@]21C", "note": "[Example 1, 3-O-(4-nitrophenyl)acetyl-5-O-desosaminyl-6-O-methylerythronolide A 9-oxime 11,12cyclic carbonate]", "values": [
      {"measurement": "MIC", "setting": "E. faecalis CSJ 1212; [1]", "result": 0.05, "unit": "µg/mL"},
      {"measurement": "MIC", "setting": "S. aureus 209P-JC; [2]", "result": 0.025, "unit": "µg/mL"},
      {"measurement": "MIC", "setting": "S. aureus B1; [5]", "result": 0.1, "unit": "µg/mL"},
      {"measurement": "MIC", "setting": "S. aureus C1; [3]", "result": 0.1, "unit": "µg/mL"},
      {"measurement": "MIC", "setting": "S. aureus J-109", "result": "> 100", "unit": "µg/mL"},
      {"measurement": "MIC", "setting": "S. aureus Smith 4", "result": 0.05, "unit": "µg/mL"},
      {"measurement": "MIC", "setting": "S. epidermides IID 866", "result": 0.05, "unit": "µg/mL"}
    ]},
    {"smiles": "CC[C@H]1OC(=O)[C@H](C)[C@@H](O[C@H]2C[C@@](C)(OC)[C@@H](O)[C@H](C)O2)[C@H](C)[C@@H](O[C@@H]2O[C@H](C)C[C@H](N(C)C)[C@H]2O)[C@](C)(OC)C[C@@H](C)C(=O)[C@H](C)[C@@H](O)[C@]1(C)O", "note": "[6-O-methylerythromycin A, reference compound]", "values": [
      {"measurement": "MIC", "setting": "E. faecalis CSJ 1212; [4]", "result": 0.78, "unit": "µg/mL"},
      {"measurement": "MIC", "setting": "S. aureus 209P-JC; 209P", "result": 0.05, "unit": "µg/mL"},
      {"measurement": "MIC", "setting": "S. aureus B1; [5]", "result": "> 100", "unit": "µg/mL"},
      {"measurement": "MIC", "setting": "S. aureus C1; S. aureus C1, sensitive disc media, read-out: MIC value (minimum inhibitory concentration)", "result": 25, "unit": "µg/mL"},
      {"measurement": "MIC", "setting": "S. aureus J-109", "result": "> 100", "unit": "µg/mL"},
      {"measurement": "MIC", "setting": "S. aureus Smith 4", "result": 0.1, "unit": "µg/mL"},
      {"measurement": "MIC", "setting": "S. epidermides IID 866", "result": 0.1, "unit": "µg/mL"}
    ]},
    {"smiles": "CC[C@H]1OC(=O)[C@H](C)[C@@H](OC(=O)Cc2ccc([N+](=O)[O-])cc2)[C@H](C)[C@@H](O[C@@H]2O[C@H](C)C[C@H](N(C)C)[C@H]2O)[C@](C)(O)C[C@@H](C)C(=NO)[C@H](C)[C@H]2OC(=O)O[C@@]21C", "note": "[Example 15, 3-0-(4-nitrophenyl)acetyl-5-O-desosaminylerythronolide A 9-oxime 11,12-cyclic carbonate]", "values": [
      {"measurement": "MIC", "setting": "E. faecalis CSJ 1212; [1]", "result": 0.05, "unit": "µg/mL"},
      {"measurement": "MIC", "setting": "S. aureus 209P-JC; 209P", "result": 0.05, "unit": "µg/mL"},
      {"measurement": "MIC", "setting": "S. aureus B1; [5]", "result": 0.1, "unit": "µg/mL"},
      {"measurement": "MIC", "setting": "S. aureus C1; [3]", "result": 0.78, "unit": "µg/mL"},
      {"measurement": "MIC", "setting": "S. aureus J-109", "result": "> 100", "unit": "µg/mL"},
      {"measurement": "MIC", "setting": "S. aureus Smith 4", "result": 0.05, "unit": "µg/mL"},
      {"measurement": "MIC", "setting": "S. epidermides IID 866", "result": 0.05, "unit": "µg/mL"}
    ]},
    {"smiles": "CC[C@H]1OC(=O)[C@H](C)[C@@H](O[C@H]2C[C@@](C)(OC)[C@@H](O)[C@H](C)O2)[C@H](C)[C@@H](O[C@@H]2O[C@H](C)C[C@H](N(C)C)[C@H]2O)[C@](C)(O)C[C@@H](C)C(=O)[C@H](C)[C@@H](O)[C@]1(C)O", "note": "[erythromycin A, reference compound]", "values": [
      {"measurement": "MIC", "setting": "E. faecalis CSJ 1212; [4]", "result": 0.78, "unit": "µg/mL"},
      {"measurement": "MIC", "setting": "S. aureus 209P-JC; 209P", "result": 0.1, "unit": "µg/mL"},
      {"measurement": "MIC", "setting": "S. aureus B1; [5]", "result": "> 100", "unit": "µg/mL"},
      {"measurement": "MIC", "setting": "S. aureus C1; [3]", "result": "> 100", "unit": "µg/mL"},
      {"measurement": "MIC", "setting": "S. aureus J-109", "result": "> 100", "unit": "µg/mL"},
      {"measurement": "MIC", "setting": "S. aureus Smith 4", "result": 0.2, "unit": "µg/mL"},
      {"measurement": "MIC", "setting": "S. epidermides IID 866", "result": 0.1, "unit": "µg/mL"}
    ]}
  ]
}
